Results taken from US20220062291A1, “COMPOSITIONS AND METHODS OF TREATING CANCERS BY ADMINISTERING A PHENOTHIAZINE-RELATED DRUG THAT ACTIVATES PROTEIN PHOSPHATASE 2A (PP2A) WITH REDUCED INHIBITORY ACTIVITY TARGETED TO THE DOPAMINE D2 RECEPTOR AND ACCOMPANYING TOXICITY” (DANA-FARBER CANCER INSTITUTE, INC., priority 2018, published 2022).
Entries after “also recorded” stand apart in the source; their conditions may differ.

Assays:
[1] = molecular target: T1, PP2A (purified PPP2R1A, PPP2CA and PPP2R5E subunits) (Homo sapiens, UniProt P30153+P67775+Q16537); test: PP2A Immunoprecipitation Phosphatase Assay with purified subunits; format: biochemical
T1 construct: made in house; host or cells: Hi5 insect cells (baculovirus, pAC8 vectors; virus produced in Sf9)
Method: The data is presented as mean±s.d. (n=3, biological replicates). *P<0.05 by student's t-test.
Phosphatase activity of PP2A was measured using the PP2A Immunoprecipitation Phosphatase Assay Kit (Merck Millipore®) (FIG. 21A-FIG. 21B). […] The proteins were subsequently incubated with protein A agarose slurry and 4 μg of anti-PPP2CA antibody (Merck Millipore®, #05-421, clone 1D6) at 4° C. with constant rocking for one hour. Agarose-bound immune complexes were collected, then washed with 700 μl TBS (3 times) and 500 μl Ser/Thr buffer (final wash), before resuspending them in 20 μl Ser/Thr buffer. A phosphopeptide (amino acid sequence: K-R-pT-I-R-R) was added as a substrate for PPP2CA, and samples were incubated at 30° C. in a shaking incubator for 10 minutes. Supernatants (25 μl) were then transferred onto 96-well plate, and released phosphate was measured by adding 100 μl malachite green phosphate detection solution. Absorbance was read by SpectraMax® M5 Multi-Mode Microplate Reader (Molecular Devices LLC) at 650 nm. Phosphate concentrations were calculated from a standard curve generated from serial dilutions of standard phosphate solution (0-2,000 pmol).

[2] = molecular target: T2, human dopamine receptor D2 (DRD2) (Homo sapiens, UniProt P14416); test: Dopamine receptor D2 inhibition assay (SRE-luciferase reporter in HEK293T cells); format: cell-based; conditions: for inhibitory activity on DRD2: 0.5, 1, 2 and 4 μM for three hours with 2 μM dopamine
T2 construct: expressed in transfected cells; host or cells: HEK293T (pcDNA3 vectors)
Text: (§1) The human dopamine receptor D2 (DRD2) and modified murine Gq5i cDNAs were inserted into pcDNA3 expression vectors. After verifying the PCR products by DNA sequencing, DRD2, Gq5i and the PathDetect pSRE-Luc Cis-Reporter Plasmid (#219080, Agilent Technologies) were transfected to HEK293T cells. As previously reported, Gq5i enables Gi/o-coupled receptor activity to be detected using a serum response element (SRE)-luciferase reporter gene (See, Conklin et al., Nature 363(6426):274-6 (1993); Al-Fulaij et al., J. Pharmacol. Exp. Ther. 321(1):298-307 (2007)). These cells were starved in FCS-free DMEM medium for six hours before incubating them with 2 μM dopamine hydrochloride (Sigma Aldrich) together with each of the compound at 0, 0.5, 1, 2 and 4 μM for three hours. The reporter activity was measured using Pierce™ Firefly Luciferase Glow Assay Kit (Thermo Fisher Scientific).
For IC50 calculation, KOPT-K1 cells were treated with each of the compounds at various concentrations for 72 hours, followed by the determination of viable cell numbers with PrestoBlue® cell viability reagent. For the PP2A phosphatase activity assay, KOPT-K1 cells were treated with each of the compounds at 10 μM for 3 hours before phosphatase activity was measured. Dopamine D2 receptor activity was monitored in HEK293T cells coexpressing the dopamine D2 receptor, modified G protein and SRE luciferase reporter. Cells were treated with each of the compound at 10 μM for 3 hours, then lysed for the luciferase reporter assay.
as §1, with “D2” for “D2 (DRD2)”, “363(6426):274-276” for “363(6426):274-6”, “0.5” for “0, 0.5, 1, 2 and 4”

[3] = tested on: KOPT-K1 cells; test: Survival of NSG mice xenotransplanted with KOPT-K1 cells; format: in vivo, NSG (NOD/Scid/IL2Rγnull) mice; conditions: 2.5 mg/kg/day, oral, from day 10
Text: At day one, 1×10^6 KOPT-K1 cells were intravenously injected into each mouse via its tail veins.

[4] = tested on: MYBL2 Ser241 in KOPT-K1 cells; test: Phosphoproteomics analysis; format: cell-based, human; conditions: 3 hours
Method: To evaluate phosphopeptides in KOPT-K1 cells by phosphoproteomics analysis, cells were treated with PPZ at 10 μM or iPAP1 at 1 μM for 3 hours.

[5] = tested on: KOPT-K1 cells with PP2A subunit inactivation; test: Drug sensitivity of KOPT-K1 sublines with CRISPR-Cas9 PP2A subunit knockout; format: cell-based, human; conditions: 72 hours
Method: Two gRNAs with different target sequences were designed for each subunit (#1 and #2). Control gRNAs target luciferase gene. […] Data are presented as means±s.d. (n=3-5, biological replicates). ***P<0.001 by Student's t-test (FIG. 3A).
SMAP sensitivity in KOPT-K1 cells was measured after PP2A subunit inactivation. Only each subunit of PP2A was knocked out by CRISPR-Cas9 with unique gRNAs. […] Two gRNAs with different target sequences were designed for each subunit (#1 and #2). Control gRNAs target luciferase gene. Data are presented as means±s.d. (n=3-5, biological replicates). ***P<0.001 by Student's t-test (FIG. 3B).
To identify the subunits of PP2A that are essential for the antitumor activity of iPAP1, CRISPR-Cas9 was used to establish a series of sublines of KOPT-K1 T-ALL cells, each lacking one of the 19 specific PP2A subunits (FIG.1A-FIG. 2), and to examine their sensitivity to iPAP1-induced growth inhibition.
With this panel of PP2A subunit knockout cells in hand, we analyzed the PP2A subunits required for growth suppression by SMAPs, another class of allosteric activators of PP2A (Gutierrez et al., J. Clin. Invest. 124:644-655 (2014); Sangodkar et al., J. Clin. Invest. 127:2081-2090 (2017)). […] Both the PPP2R5E and PPP2R2A regulatory subunits of PP2A were among the most highly expressed in a series of 16 different T-ALL cell lines (FIG. 5A). Thus, the assembly of structurally different heterotrimeric PP2A complexes induced with either iPAP1 or SMAP cannot be attributed to imbalances in cellular expression levels of individual PP2A subunits, but likely stems from differences in the allosteric alterations of the A subunit protein resulting from the binding of these two classes of small molecules, which have different chemical structures.

T2 sequence (P14416 whole entry): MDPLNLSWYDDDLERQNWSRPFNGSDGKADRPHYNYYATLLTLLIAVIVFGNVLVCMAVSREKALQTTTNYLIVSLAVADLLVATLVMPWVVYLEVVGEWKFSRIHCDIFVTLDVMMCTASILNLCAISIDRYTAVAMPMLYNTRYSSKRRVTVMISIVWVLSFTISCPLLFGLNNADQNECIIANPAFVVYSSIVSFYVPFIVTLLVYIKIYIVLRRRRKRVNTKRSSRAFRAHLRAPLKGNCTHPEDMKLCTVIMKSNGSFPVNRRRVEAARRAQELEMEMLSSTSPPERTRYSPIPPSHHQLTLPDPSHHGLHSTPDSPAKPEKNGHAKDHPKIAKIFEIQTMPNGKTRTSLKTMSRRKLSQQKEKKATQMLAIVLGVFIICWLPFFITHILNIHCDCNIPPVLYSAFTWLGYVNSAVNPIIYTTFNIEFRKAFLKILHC
T1 sequence (P30153 whole entry): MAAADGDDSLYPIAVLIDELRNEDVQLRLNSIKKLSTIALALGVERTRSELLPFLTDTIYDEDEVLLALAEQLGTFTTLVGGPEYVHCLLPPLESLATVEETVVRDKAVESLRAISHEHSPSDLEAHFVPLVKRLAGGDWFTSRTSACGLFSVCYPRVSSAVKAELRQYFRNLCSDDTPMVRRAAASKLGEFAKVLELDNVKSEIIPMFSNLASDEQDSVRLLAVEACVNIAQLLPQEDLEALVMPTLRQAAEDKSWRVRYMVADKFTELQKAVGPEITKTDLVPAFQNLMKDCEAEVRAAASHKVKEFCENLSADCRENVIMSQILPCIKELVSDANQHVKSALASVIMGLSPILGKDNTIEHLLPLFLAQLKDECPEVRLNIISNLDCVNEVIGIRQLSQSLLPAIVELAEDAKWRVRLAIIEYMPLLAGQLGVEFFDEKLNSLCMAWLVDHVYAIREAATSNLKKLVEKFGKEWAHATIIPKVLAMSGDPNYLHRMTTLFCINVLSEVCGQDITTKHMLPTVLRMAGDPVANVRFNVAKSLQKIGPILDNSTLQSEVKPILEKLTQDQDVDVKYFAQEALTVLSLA
T1 sequence (P67775 whole entry): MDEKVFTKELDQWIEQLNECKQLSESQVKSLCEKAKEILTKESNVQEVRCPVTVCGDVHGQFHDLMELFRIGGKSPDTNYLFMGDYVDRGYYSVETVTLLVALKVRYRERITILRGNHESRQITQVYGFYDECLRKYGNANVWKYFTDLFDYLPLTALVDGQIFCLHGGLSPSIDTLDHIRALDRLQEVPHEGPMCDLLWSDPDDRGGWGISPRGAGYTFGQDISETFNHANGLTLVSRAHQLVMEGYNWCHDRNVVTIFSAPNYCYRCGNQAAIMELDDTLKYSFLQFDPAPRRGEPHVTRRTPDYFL
T1 sequence (Q16537 whole entry): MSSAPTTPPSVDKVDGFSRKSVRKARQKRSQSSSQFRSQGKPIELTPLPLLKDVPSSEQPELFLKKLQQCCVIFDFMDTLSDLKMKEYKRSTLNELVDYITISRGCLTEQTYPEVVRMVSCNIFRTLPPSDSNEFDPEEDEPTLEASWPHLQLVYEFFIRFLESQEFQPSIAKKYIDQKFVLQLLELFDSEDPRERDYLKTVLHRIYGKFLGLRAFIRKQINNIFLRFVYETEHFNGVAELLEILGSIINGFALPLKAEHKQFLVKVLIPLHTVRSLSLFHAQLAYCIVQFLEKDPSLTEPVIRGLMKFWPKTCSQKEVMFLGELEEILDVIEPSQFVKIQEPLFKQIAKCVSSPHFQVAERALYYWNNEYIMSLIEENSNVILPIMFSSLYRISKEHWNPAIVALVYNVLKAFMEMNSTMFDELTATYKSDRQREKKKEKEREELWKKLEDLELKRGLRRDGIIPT

| SMILES | phosphatase activity of PP2A assembled from purified PPP2R1A, PPP2CA and PPP2R5E ([1]; one hour at room temperature) | inhibitory activity on DRD2 [2] | overall survival [3] | phosphorylation of MYBL2 ([4]; 10 μM) | PP2A subunits whose knockout gives resistance ([5]; 5 μM) | PP2A activated at lower molar concentrations than PPZ ([1]; purified subunits) [fold] | equivalent PP2A activation activity at lower concentrations compared to PPZ ([1]; purified subunits 200 ng each, one hour at room temperature) [times] | inhibitory activities on DRD2 ([2]; 0.5 μM for three hours with 2 μM dopamine) | inhibitory activity against DRD2 compared to PPZ ([2]; 10 μM for three hours) [%] | DRD2 inhibitory activity as share of the activity of PPZ ([2]; 0.5 to 4 μM) | less active in inhibiting DRD2 than PPZ ([2]; multiple molar concentrations) | phosphorylation of MYBL2 ([4]; 1 μM) | PP2A subunits whose knockout gives resistance ([5]; 0.5 μM) |
| --- | --- | --- | --- | --- | --- | --- | --- | --- | --- | --- | --- | --- | --- |
| OCCN1CCN(CCCN2c3ccccc3Sc3ccc(Cl)cc32)CC1 [PPZ, perphenazine, reference compound] | Phosphatase activity increased with increasing concentrations of PPZ | strong inhibitory activity on DRD2 at 0.5 μM; also recorded: strong inhibitory activity of DRD2 activity at concentrations as low as 0.5 μM | did not show any survival advantage over the control | completely dephosphorylated at Ser241 | resistance to PPZ treatment only when the specific subunits PPP2R1A, PPP2CA or PPP2R5E were knocked out | – | – | – | – | – | – | – | – |
| COc1ccc(C(=O)N2c3ccccc3Sc3ccc(Cl)cc32)cc1 [iPAP1] | the phosphatase activity of PP2A was increased upon iPAP1 treatment | no inhibitory activity of DRD2 signaling at concentrations up to 4 μM | significantly extended the overall survival period | – | – | ~10 | ~10 | did not show inhibitory activities on DRD2 | ~1 | less than 1% | more than 100 fold | completely dephosphorylated at Ser241 | resistance to iPAP1 treatment only when the PPP2R1A, PPP2CA or PPP2R5E subunits were disrupted |
